# Reference: patent US20100004234A1, “SPECIFIC KINASE INHIBITORS” (Kosan Biosciences Incorporated, priority 2004, published 2010)
# Assays:
# Test in all cases: Kinase panel, residual activity
# Assay type in all cases: biochemical
# Settings in all cases: read-out: Percent residual activity
# CK2(h) = CK2(h) (Homo sapiens, UniProt P68400)
# Procedure: (§1) In this panel of 124 kinases, 18 of the 19 kinases identified as having an active site cysteine were inhibited to some extent by hypothemycin at a concentration of 0.2 μM and/or 2 μM.
# PRK2(h) = PRK2(h) (Homo sapiens, UniProt Q16513)
# Procedure: as §1
# JNK2α2(h) = JNK2α2(h) (Homo sapiens, UniProt P45984)
# Procedure: as §1
# TrkA(h) = TrkA(h) (Homo sapiens, UniProt P04629)
# Procedure: as §1
# PKCβI(h) = PKCβI(h) (Homo sapiens, UniProt P05771)
# Procedure: as §1
# Flt1(h) = Flt1(h) (Homo sapiens, UniProt P17948)
# Procedure: as §1
# Rsk3(h) = Rsk3(h) (Homo sapiens, UniProt Q15349)
# Procedure: as §1
# Rsk2(h) = Rsk2(h) (Homo sapiens, UniProt P51812)
# Procedure: as §1
# PAK4(h) = PAK4(h) (Homo sapiens, UniProt O96013)
# Procedure: as §1
# DDR2(h) = DDR2(h) (Homo sapiens, UniProt Q16832)
# Procedure: as §1
# ZIPK(h) = ZIPK(h) (Homo sapiens, UniProt O43293)
# Procedure: as §1
# BTK(h) = BTK(h) (Homo sapiens, UniProt Q06187)
# Procedure: as §1
# GSK3α(h) = GSK3α(h) (Homo sapiens, UniProt P49840)
# Procedure: as §1
# PKCβII(h) = PKCβII(h) (Homo sapiens, UniProt P05771)
# Procedure: as §1
# ROCK-II(h) = ROCK-II(h) (Homo sapiens, UniProt O75116)
# Procedure: as §1
# MAPKAP-K2(h) = MAPKAP-K2(h) (Homo sapiens, UniProt P49137)
# Procedure: as §1
# PDGFRβ(h) = PDGFRβ(h) (Homo sapiens, UniProt P09619)
# Procedure: as §1
# ZAP-70(h) = ZAP-70(h) (Homo sapiens, UniProt P43403)
# Procedure: as §1
# IR(h) = IR(h) (Homo sapiens, UniProt P06213)
# Procedure: as §1
# EphB4(h) = EphB4(h) (Homo sapiens, UniProt P54760)
# Procedure: as §1
# PDK1(h) = PDK1(h) (Homo sapiens, UniProt O15530)
# Procedure: as §1
# PKD2(h) = PKD2(h) (Homo sapiens, UniProt Q9BZL6)
# Procedure: as §1
# MKK7β(h) = MKK7β(h) (Homo sapiens, UniProt O14733)
# Procedure: as §1
# KDR = KDR (Homo sapiens, UniProt P35968)
# Procedure: as §1
# PRAK(h) = PRAK(h) (Homo sapiens, UniProt Q8IW41)
# Procedure: as §1
# Lck(h) = Lck(h) (Homo sapiens, UniProt P06239)
# Procedure: as §1
# NEK7(h) = NEK7(h) (Homo sapiens, UniProt Q8TDX7)
# Procedure: as §1
# PKCζ(h) = PKCζ(h) (Homo sapiens, UniProt Q05513)
# Procedure: as §1
# Rse(h) = Rse(h) (Homo sapiens, UniProt Q06418)
# Procedure: as §1
# CDK1/cyclinB(h) = CDK1/cyclinB(h) (Homo sapiens, UniProt P06493)
# Procedure: as §1
# Pyk2(h) = Pyk2(h) (Homo sapiens, UniProt Q14289)
# Procedure: as §1
# SGK(h) = SGK(h) (Homo sapiens, UniProt O00141)
# Procedure: as §1
# PKCμ(h) = PKCμ(h) (Homo sapiens, UniProt Q15139)
# Procedure: as §1
# FGFR4(h) = FGFR4(h) (Homo sapiens, UniProt P22455)
# Procedure: as §1
# Flt3(D835Y)(h) = Flt3(D835Y)(h) (Homo sapiens, UniProt P36888, D835Y)
# Procedure: as §1
# TAK1(h) = TAK1(h) (Homo sapiens, UniProt O43318)
# Procedure: as §1
# Fyn(h) = Fyn(h) (Homo sapiens, UniProt P06241)
# Procedure: as §1
# GSK3α(h), sequence (P49840 whole entry): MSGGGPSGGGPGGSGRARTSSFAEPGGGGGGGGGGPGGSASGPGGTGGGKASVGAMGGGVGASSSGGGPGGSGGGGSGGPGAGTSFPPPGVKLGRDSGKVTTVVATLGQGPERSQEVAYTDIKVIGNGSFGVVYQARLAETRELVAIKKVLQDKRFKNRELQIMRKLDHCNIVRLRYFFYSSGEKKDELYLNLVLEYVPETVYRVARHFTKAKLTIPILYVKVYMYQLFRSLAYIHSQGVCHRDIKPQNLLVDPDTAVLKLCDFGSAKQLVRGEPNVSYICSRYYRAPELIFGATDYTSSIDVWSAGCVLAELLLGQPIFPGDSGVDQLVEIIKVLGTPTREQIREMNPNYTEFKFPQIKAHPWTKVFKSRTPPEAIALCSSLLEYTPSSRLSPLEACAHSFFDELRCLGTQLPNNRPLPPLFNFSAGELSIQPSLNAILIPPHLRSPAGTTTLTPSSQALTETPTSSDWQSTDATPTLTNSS
# Flt1(h), sequence (P17948 27-1338): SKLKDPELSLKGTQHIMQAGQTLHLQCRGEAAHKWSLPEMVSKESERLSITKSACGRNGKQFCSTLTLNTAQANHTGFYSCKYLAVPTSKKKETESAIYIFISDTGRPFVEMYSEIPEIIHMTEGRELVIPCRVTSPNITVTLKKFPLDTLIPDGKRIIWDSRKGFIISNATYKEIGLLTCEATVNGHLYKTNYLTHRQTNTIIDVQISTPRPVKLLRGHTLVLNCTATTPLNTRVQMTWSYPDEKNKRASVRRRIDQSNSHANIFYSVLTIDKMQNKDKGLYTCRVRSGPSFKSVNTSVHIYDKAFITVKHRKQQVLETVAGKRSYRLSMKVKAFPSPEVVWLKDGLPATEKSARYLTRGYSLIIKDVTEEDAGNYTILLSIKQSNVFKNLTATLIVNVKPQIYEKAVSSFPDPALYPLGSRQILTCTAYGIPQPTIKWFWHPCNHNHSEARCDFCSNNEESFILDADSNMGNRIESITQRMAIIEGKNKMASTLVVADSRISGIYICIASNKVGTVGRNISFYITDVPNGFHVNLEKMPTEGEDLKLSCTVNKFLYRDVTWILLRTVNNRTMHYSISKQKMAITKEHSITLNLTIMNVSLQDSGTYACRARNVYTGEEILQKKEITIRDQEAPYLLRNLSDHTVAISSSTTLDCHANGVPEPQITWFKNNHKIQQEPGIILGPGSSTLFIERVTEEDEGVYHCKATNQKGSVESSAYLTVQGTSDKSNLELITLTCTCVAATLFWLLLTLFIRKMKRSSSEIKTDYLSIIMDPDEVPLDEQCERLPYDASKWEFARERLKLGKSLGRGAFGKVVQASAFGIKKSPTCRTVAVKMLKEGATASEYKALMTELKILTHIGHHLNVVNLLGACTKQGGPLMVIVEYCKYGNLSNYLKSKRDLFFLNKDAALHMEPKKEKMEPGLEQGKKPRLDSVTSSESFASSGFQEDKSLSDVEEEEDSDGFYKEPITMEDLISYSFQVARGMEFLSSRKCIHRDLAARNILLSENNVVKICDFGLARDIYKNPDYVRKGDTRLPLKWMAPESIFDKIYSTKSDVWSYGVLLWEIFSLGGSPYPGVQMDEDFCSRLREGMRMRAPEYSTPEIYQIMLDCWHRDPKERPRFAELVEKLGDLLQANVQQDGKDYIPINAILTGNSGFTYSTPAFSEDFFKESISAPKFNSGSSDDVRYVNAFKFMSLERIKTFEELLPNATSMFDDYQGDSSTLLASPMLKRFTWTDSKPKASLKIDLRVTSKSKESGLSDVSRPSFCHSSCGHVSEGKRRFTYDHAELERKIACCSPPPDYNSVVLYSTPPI
# TAK1(h), sequence (O43318 1-303 limits assumed): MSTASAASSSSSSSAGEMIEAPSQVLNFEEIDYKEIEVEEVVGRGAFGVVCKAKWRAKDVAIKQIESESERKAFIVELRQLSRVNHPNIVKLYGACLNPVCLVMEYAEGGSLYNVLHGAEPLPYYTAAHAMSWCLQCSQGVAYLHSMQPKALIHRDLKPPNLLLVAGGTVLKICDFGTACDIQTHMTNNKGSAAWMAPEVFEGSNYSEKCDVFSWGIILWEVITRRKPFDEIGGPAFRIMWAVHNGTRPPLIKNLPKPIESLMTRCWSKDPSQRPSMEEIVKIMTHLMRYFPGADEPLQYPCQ
# TAK1(h), sequence (Q15750 437-504 partner limits assumed): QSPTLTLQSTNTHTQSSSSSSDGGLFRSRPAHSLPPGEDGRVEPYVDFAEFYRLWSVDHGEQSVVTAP
# PKCμ(h), sequence (Q15139 whole entry): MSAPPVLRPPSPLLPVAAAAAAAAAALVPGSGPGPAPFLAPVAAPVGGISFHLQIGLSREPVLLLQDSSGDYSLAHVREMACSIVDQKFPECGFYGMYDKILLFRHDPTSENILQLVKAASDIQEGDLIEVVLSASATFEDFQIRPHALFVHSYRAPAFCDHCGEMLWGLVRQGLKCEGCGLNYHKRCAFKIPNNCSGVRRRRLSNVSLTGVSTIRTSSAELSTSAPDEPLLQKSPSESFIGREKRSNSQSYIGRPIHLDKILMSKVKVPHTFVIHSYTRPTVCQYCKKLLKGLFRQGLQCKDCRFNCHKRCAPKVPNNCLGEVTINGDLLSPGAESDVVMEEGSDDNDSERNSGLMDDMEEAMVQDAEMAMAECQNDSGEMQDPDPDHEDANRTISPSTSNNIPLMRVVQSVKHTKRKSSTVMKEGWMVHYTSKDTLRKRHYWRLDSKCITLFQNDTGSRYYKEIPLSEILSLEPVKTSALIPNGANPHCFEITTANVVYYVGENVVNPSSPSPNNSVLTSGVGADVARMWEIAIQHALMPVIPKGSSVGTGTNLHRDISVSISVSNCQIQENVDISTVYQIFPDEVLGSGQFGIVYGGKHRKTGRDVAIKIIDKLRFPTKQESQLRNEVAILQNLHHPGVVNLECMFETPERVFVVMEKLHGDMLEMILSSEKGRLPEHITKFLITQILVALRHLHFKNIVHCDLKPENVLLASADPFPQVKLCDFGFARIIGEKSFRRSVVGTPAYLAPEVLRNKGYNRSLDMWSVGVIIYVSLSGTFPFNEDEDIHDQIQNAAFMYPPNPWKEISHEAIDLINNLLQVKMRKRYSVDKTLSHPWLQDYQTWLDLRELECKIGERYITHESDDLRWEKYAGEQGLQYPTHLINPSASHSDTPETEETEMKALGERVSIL
# PRAK(h), sequence (Q8IW41 whole entry): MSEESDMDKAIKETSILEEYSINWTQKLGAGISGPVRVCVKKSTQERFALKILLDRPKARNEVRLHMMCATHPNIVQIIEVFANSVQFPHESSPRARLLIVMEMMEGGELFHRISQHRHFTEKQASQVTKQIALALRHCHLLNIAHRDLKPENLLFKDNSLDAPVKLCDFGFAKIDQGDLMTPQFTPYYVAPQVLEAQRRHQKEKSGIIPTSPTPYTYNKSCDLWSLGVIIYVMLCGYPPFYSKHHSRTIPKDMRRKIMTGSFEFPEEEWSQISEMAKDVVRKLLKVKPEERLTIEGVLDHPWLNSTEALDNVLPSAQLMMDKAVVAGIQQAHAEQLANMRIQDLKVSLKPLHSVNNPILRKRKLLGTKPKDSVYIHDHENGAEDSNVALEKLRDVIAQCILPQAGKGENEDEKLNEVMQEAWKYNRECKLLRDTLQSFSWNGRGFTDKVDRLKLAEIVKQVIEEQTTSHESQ
# TrkA(h), sequence (P04629 33-796): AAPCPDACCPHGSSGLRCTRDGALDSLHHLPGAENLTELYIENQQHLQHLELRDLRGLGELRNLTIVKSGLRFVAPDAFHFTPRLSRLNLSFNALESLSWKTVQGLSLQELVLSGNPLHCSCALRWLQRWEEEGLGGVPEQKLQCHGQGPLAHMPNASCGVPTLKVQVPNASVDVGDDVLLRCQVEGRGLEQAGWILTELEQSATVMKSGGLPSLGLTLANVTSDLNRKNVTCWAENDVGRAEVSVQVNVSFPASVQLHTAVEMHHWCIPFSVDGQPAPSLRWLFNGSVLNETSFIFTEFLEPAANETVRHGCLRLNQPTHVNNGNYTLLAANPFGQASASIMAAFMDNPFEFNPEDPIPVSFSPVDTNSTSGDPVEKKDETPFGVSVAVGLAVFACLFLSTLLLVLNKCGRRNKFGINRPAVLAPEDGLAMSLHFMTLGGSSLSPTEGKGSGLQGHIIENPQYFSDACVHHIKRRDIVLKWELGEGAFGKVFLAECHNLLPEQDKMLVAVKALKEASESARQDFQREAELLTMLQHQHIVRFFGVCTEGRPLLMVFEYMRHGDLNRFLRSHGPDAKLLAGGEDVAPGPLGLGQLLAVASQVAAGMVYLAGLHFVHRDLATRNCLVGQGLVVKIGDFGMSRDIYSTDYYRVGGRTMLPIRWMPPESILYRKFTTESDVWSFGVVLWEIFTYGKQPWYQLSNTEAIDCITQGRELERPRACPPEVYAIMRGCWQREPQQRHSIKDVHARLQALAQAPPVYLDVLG
# MKK7β(h), sequence (O14733 whole entry): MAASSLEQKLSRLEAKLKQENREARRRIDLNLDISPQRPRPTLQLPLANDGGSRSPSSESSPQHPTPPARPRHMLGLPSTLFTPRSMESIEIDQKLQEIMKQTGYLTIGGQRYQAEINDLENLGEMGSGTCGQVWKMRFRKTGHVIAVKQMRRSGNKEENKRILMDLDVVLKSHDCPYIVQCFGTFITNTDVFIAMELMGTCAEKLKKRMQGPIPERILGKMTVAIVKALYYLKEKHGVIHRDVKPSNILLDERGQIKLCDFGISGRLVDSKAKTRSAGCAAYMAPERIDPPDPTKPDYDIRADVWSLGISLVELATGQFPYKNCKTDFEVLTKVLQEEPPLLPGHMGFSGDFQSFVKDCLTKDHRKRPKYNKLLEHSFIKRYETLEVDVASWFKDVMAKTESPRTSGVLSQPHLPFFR
compound,measurement,setting,value
"COc1cc(O)c2c(c1)[C@H]1O[C@@H]1C[C@H](O)[C@H](O)C(=O)/C=C\C[C@H](C)OC2=O [Hypothemycin, hypothemycin]",remaining activity at 0.2 µM,CK2(h),99%
same,remaining activity at 0.2 µM,PRK2(h),108%
same,remaining activity at 0.2 µM,JNK2α2(h),93%
same,remaining activity at 0.2 µM,TrkA(h); 0.2 μM,22%
same,remaining activity at 2 µM,TrkA(h); 2.0 μM,1%
same,remaining activity at 0.2 µM,PKCβI(h),99%
same,remaining activity at 0.2 µM,Flt1(h); 0.2 μM,2%
same,remaining activity at 2 µM,Flt1(h); 2.0 μM,7%
same,remaining activity at 0.2 µM,Rsk3(h),94%
same,remaining activity at 0.2 µM,Rsk2(h),91%
same,remaining activity at 0.2 µM,PAK4(h),92%
same,remaining activity at 0.2 µM,DDR2(h),92%
same,remaining activity at 0.2 µM,ZIPK(h),96%
same,remaining activity at 0.2 µM,BTK(h),104%
same,remaining activity at 0.2 µM,GSK3α(h); 0.2 μM,90%
same,remaining activity at 2 µM,GSK3α(h); 2.0 μM,88%
same,remaining activity at 0.2 µM,PKCβII(h),97%
same,remaining activity at 0.2 µM,ROCK-II(h),104%
same,remaining activity at 0.2 µM,MAPKAP-K2(h),98%
same,remaining activity at 0.2 µM,PDGFRβ(h); 0.2 μM,73%
same,remaining activity at 2 µM,PDGFRβ(h); 2.0 μM,40%
same,remaining activity at 0.2 µM,ZAP-70(h),111%
same,remaining activity at 0.2 µM,IR(h),100%
same,remaining activity at 0.2 µM,EphB4(h),82%
same,remaining activity at 0.2 µM,PDK1(h),93%
same,remaining activity at 0.2 µM,PKD2(h); 0.2 μM,31%
same,remaining activity at 2 µM,PKD2(h); 2.0 μM,-2%
same,remaining activity at 0.2 µM,MKK7β(h); 0.2 μM,85%
same,remaining activity at 2 µM,MKK7β(h); 2.0 μM,41%
same,remaining activity at 2 µM,KDR,15%
same,remaining activity at 0.2 µM,PRAK(h); 0.2 μM,20%
same,remaining activity at 2 µM,PRAK(h); 2.0 μM,1%
same,remaining activity at 0.2 µM,Lck(h),98%
same,remaining activity at 0.2 µM,NEK7(h),98%
same,remaining activity at 0.2 µM,PKCζ(h),94%
same,remaining activity at 0.2 µM,Rse(h),90%
same,remaining activity at 0.2 µM,CDK1/cyclinB(h),89%
same,remaining activity at 0.2 µM,Pyk2(h),84%
same,remaining activity at 0.2 µM,SGK(h),99%
same,remaining activity at 0.2 µM,PKCμ(h); 0.2 μM,34%
same,remaining activity at 2 µM,PKCμ(h); 2.0 μM,6%
same,remaining activity at 0.2 µM,FGFR4(h),87%
same,remaining activity at 0.2 µM,Flt3(D835Y)(h); 0.2 μM,4%
same,remaining activity at 2 µM,Flt3(D835Y)(h); 2.0 μM,2%
same,remaining activity at 0.2 µM,TAK1(h); 0.2 μM,12%
same,remaining activity at 2 µM,TAK1(h); 2.0 μM,5%
same,remaining activity at 0.2 µM,Fyn(h),87%
